Assays:
Assay in all cases: radiometric filter-binding kinase assay, Kinase HotSpot
Conditions in all cases: compound 0.5 µM; ATP 10 µM
PAK6 (human) = PAK6 (human) (UniProt Q9NQU5)
DCLK2 (human) = DCLK2 (human) (UniProt Q8N568)
[1] = system: ARAF (human), P10398 [Y301D/Y302D]
STK4 (human) = STK4 (human) (UniProt Q13043)
IKBKB (human) = IKBKB (human) (UniProt O14920)
EPHA3 (human) = EPHA3 (human) (UniProt P29320)
MAPKAPK2 (human) = MAPKAPK2 (human) (UniProt P49137)
ROS1 (human) = ROS1 (human) (UniProt P08922)
TLK2 (human) = TLK2 (human) (UniProt Q86UE8)
EPHA6 (human) = EPHA6 (human) (UniProt Q9UF33)
MYO3B (human) = MYO3B (human) (UniProt Q8WXR4)
STK38 (human) = STK38 (human) (UniProt Q15208)
PRKACG (human) = PRKACG (human) (UniProt P22612)
MYLK2 (human) = MYLK2 (human) (UniProt Q9H1R3)
DYRK1A (human) = DYRK1A (human) (UniProt Q13627)
ULK3 (human) = ULK3 (human) (UniProt Q6PHR2)
BRAF (human) = BRAF (human) (UniProt P15056)
MAP2K2 (human) = MAP2K2 (human) (UniProt P36507)
HIPK3 (human) = HIPK3 (human) (UniProt Q9H422)
BLK (human) = BLK (human) (UniProt P51451)
ACVR1 (human) = ACVR1 (human) (UniProt Q04771)
ABL1 (human) = ABL1 (human) (UniProt P00519)
IGF1R (human) = IGF1R (human) (UniProt P08069)
MAP3K2 (human) = MAP3K2 (human) (UniProt Q9Y2U5)
ZAP70 (human) = ZAP70 (human) (UniProt P43403)
CDK1 CCNA2 (human) = CDK1 CCNA2 (human) (UniProt P06493+P20248)
BTK (human) = BTK (human) (UniProt Q06187)
RET (human) = RET (human) (UniProt P07949)
PNCK (human) = PNCK (human) (UniProt Q6P2M8)
GSG2 (human) = GSG2 (human) (UniProt Q8TF76)
CSNK2A2 (human) = CSNK2A2 (human) (UniProt P19784)
EPHA5 (human) = EPHA5 (human) (UniProt P54756)
FRK (human) = FRK (human) (UniProt P42685)
AURKB (human) = AURKB (human) (UniProt Q96GD4)
FGR (human) = FGR (human) (UniProt P09769)
FER (human) = FER (human) (UniProt P16591)
STK24 (human) = STK24 (human) (UniProt Q9Y6E0)
PRKCB1 (human) = PRKCB1 (human) (UniProt P05771)
PRKCD (human) = PRKCD (human) (UniProt Q05655)
FLT1 (human) = FLT1 (human) (UniProt P17948)
PDGFRB (human) = PDGFRB (human) (UniProt P09619)
EGFR (human) = EGFR (human) (UniProt P00533)

Chain of ZAP70 (human) (P43403 whole entry, looked up): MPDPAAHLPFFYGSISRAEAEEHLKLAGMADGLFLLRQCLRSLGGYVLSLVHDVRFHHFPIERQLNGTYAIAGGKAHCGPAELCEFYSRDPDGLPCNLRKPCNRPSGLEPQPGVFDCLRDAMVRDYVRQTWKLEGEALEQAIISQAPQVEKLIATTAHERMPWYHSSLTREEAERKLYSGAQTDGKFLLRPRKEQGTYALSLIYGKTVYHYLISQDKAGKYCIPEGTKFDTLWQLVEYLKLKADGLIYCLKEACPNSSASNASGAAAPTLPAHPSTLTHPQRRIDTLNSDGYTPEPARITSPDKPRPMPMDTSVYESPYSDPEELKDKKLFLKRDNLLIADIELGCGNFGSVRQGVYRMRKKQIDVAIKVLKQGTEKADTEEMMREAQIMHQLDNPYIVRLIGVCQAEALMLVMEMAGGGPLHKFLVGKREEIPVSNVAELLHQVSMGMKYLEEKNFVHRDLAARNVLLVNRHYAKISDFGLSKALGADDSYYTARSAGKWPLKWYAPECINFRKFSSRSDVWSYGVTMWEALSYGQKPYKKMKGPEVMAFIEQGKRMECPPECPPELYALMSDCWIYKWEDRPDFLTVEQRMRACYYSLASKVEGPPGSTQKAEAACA
Chain of MAPKAPK2 (human) (P49137 whole entry, looked up): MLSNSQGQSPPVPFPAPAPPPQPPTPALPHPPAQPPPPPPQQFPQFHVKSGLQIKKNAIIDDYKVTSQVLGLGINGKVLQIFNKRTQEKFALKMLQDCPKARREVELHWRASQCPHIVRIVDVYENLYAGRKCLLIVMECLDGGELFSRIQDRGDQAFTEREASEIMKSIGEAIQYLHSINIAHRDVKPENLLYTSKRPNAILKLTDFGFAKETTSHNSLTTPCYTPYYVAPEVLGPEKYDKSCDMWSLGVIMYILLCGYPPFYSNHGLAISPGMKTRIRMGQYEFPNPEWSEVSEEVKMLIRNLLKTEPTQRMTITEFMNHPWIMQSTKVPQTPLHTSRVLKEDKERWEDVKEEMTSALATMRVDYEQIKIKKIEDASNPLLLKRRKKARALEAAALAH
Chain of BRAF (human) (P15056 whole entry, looked up): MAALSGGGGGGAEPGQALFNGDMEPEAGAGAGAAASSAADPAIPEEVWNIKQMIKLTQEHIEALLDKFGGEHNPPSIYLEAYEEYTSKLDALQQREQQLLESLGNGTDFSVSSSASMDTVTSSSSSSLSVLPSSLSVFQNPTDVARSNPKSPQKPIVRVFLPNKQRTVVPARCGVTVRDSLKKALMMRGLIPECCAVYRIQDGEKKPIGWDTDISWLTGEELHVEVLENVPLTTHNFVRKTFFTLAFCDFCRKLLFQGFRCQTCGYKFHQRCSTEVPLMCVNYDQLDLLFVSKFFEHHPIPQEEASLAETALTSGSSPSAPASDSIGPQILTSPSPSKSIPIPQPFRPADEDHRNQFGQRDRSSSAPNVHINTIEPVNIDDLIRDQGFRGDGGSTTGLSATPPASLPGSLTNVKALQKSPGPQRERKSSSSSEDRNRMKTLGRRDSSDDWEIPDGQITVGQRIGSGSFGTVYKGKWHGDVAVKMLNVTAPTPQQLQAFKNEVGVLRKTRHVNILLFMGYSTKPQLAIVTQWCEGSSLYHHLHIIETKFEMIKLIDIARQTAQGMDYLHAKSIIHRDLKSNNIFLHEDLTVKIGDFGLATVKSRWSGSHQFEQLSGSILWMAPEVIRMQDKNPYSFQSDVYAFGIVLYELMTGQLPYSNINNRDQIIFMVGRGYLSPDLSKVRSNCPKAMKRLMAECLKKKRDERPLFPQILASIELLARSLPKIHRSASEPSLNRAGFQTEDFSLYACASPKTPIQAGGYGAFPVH
Chain of FGR (human) (P09769 whole entry, looked up): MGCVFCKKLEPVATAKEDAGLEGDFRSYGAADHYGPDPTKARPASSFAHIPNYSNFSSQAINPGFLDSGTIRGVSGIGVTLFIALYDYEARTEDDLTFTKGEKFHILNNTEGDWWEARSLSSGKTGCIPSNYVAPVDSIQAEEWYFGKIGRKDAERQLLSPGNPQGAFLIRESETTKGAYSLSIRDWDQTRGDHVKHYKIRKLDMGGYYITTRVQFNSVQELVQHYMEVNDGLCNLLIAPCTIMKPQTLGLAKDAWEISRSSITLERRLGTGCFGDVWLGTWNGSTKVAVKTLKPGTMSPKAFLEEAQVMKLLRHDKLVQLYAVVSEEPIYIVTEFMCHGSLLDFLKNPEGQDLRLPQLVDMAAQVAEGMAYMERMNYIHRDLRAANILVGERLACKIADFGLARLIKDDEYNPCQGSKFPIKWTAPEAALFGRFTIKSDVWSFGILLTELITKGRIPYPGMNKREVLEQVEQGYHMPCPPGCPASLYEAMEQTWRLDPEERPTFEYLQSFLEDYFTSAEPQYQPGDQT
Chain of FER (human) (P16591 whole entry, looked up): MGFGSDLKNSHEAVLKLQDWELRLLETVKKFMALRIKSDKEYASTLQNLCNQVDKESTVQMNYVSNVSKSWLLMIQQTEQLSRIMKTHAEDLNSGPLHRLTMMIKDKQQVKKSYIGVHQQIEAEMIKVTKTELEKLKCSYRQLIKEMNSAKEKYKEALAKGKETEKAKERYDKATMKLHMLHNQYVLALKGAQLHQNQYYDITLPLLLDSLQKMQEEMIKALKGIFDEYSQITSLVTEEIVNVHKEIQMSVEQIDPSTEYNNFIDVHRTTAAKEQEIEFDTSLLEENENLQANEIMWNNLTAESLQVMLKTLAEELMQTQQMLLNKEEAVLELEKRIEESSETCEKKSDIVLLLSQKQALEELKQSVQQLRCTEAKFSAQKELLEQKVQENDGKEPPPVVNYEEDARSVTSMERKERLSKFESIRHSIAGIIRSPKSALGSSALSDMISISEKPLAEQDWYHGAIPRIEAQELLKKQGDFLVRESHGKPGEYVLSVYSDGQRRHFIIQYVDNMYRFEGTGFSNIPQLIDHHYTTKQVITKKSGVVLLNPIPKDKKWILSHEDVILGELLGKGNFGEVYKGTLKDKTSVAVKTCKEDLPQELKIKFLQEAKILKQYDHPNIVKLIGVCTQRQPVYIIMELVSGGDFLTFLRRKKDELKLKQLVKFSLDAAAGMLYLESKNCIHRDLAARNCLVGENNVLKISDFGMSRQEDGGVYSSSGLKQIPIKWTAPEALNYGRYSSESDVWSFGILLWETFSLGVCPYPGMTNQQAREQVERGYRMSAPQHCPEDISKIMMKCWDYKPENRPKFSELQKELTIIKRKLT
Chain of DCLK2 (human) (Q8N568 whole entry, looked up): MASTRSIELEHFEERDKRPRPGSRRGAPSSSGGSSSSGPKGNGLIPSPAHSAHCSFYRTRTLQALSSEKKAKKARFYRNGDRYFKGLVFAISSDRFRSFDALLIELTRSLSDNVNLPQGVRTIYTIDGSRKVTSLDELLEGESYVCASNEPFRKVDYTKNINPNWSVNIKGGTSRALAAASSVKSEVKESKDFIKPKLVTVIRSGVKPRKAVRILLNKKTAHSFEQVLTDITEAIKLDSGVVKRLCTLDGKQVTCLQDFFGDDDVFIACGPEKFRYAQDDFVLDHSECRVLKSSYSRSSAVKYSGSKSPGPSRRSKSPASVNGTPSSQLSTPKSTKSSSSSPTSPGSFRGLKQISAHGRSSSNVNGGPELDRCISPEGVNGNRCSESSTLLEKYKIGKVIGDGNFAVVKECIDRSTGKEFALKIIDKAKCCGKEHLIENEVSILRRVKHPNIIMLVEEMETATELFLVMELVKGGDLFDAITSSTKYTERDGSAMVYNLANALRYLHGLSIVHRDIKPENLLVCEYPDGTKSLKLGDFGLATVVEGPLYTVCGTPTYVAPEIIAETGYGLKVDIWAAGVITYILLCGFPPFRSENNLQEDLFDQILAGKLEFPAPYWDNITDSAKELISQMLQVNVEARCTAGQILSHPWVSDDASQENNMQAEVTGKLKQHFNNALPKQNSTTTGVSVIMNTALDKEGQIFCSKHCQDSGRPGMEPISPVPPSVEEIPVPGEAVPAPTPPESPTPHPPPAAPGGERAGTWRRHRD
Chain of PRKCD (human) (Q05655 whole entry, looked up): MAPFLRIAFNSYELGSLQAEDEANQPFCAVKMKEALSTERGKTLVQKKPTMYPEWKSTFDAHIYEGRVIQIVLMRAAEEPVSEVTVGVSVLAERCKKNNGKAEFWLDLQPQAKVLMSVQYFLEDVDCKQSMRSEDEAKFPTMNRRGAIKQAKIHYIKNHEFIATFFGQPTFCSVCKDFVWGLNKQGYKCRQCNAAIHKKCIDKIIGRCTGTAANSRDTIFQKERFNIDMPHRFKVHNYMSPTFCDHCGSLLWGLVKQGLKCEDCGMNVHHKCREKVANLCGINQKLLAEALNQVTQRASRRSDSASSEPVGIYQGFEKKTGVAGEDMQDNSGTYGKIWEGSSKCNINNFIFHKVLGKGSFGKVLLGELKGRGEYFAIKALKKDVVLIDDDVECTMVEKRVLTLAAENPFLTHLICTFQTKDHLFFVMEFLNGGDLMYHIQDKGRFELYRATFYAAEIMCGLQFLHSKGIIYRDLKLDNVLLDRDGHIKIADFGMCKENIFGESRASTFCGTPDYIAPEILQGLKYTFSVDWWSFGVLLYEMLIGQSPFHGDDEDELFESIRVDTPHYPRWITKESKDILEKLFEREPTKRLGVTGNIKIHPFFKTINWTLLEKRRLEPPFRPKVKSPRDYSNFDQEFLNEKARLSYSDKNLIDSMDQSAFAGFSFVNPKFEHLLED
Chain of STK38 (human) (Q15208 whole entry, looked up): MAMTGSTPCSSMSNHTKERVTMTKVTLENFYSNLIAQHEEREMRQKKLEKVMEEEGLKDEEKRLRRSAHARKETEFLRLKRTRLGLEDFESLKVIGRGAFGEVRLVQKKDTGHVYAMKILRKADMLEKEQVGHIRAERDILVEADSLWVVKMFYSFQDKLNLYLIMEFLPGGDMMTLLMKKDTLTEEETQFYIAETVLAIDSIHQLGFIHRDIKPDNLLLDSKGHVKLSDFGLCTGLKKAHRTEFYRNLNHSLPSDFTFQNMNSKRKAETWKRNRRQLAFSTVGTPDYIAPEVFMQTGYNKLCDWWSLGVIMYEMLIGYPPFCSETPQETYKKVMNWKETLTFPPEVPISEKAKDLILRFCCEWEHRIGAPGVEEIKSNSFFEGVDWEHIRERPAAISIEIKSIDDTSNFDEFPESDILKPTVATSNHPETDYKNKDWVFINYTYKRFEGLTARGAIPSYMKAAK

| Structure (SMILES) | residual activity (PAK6 (human)) | residual activity (DCLK2 (human)) | residual activity (STK4 (human)) | residual activity (IKBKB (human)) | residual activity (EPHA3 (human)) | residual activity (ROS1 (human)) | residual activity (TLK2 (human)) | residual activity (EPHA6 (human)) | residual activity (MYO3B (human)) | residual activity (STK38 (human)) | residual activity (PRKACG (human)) | residual activity (MYLK2 (human)) | residual activity (DYRK1A (human)) | residual activity (ULK3 (human)) | residual activity (MAP2K2 (human)) | residual activity (HIPK3 (human)) | residual activity (BLK (human)) | residual activity (ACVR1 (human)) | residual activity (IGF1R (human)) | residual activity (MAP3K2 (human)) | other results |
| --- | --- | --- | --- | --- | --- | --- | --- | --- | --- | --- | --- | --- | --- | --- | --- | --- | --- | --- | --- | --- | --- |
| Clc1ccc(Nc2nnc(Cc3ccncc3)c3ccccc23)cc1 | 107% | 100% | 105% | 85.6% | 98.8% | 94.7% | 102% | 101% | 102% | 100% | 116% | 103% | 102% | 101% | 100% | 96.5% | 105% | 96.1% | 108% | 126% | residual activity [1]: 97.6%; residual activity (MAPKAPK2 (human)): 98.8%; residual activity (BRAF (human)): 92.2%; residual activity (ABL1 (human)): 96.5%; residual activity (ZAP70 (human)): 96.6%; residual activity (CDK1 CCNA2 (human)): 105%; residual activity (BTK (human)): 95.4%; residual activity (RET (human)): 89.1%; residual activity (PNCK (human)): 103%; residual activity (GSG2 (human)): 70%; residual activity (CSNK2A2 (human)): 106%; residual activity (EPHA5 (human)): 109%; residual activity (FRK (human)): 95.4%; residual activity (AURKB (human)): 90%; residual activity (FGR (human)): 96.8%; residual activity (FER (human)): 91.4%; residual activity (STK24 (human)): 98.7%; residual activity (PRKCB1 (human)): 83.5%; residual activity (PRKCD (human)): 97.4% |
| COc1cc2ncnc(Nc3ccc(F)c(Cl)c3)c2cc1OCCCN1CCOCC1 | 105% | 101% | 101% | 86.5% | 94.4% | 92.3% | 80.4% | 28.9% | 91.4% | 105% | 107% | 99.2% | 101% | 108% | 102% | 103% | 87.7% | 106% | 92.3% | 109% | residual activity [1]: 95.3%; residual activity (MAPKAPK2 (human)): 97.5%; residual activity (FLT1 (human)): 98.3%; residual activity (BRAF (human)): 95.8%; residual activity (ZAP70 (human)): 96.5%; residual activity (CDK1 CCNA2 (human)): 101%; residual activity (BTK (human)): 60.6%; residual activity (RET (human)): 76.9%; residual activity (PNCK (human)): 108%; residual activity (GSG2 (human)): 84%; residual activity (CSNK2A2 (human)): 88.6%; residual activity (EPHA5 (human)): 95.8%; residual activity (PDGFRB (human)): 93.9%; residual activity (FRK (human)): 97.9%; residual activity (AURKB (human)): 106%; residual activity (FGR (human)): 70.1%; residual activity (FER (human)): 94.1%; residual activity (STK24 (human)): 102%; residual activity (PRKCB1 (human)): 95%; residual activity (PRKCD (human)): 106% |
| COc1cc2nccc(Oc3ccc(NC(=S)NC(=O)c4ccccc4C)cc3)c2cc1OC | 95.8% | 91.5% | 95.6% | 99.4% | 105% | 26.7% | 85.3% | 33% | 83.4% | 107% | 107% | 26.8% | 95.4% | 86.8% | 79.4% | 95.2% | 8.59% | 93.5% | 92.1% | 83.1% | residual activity (MAPKAPK2 (human)): 98%; residual activity (FLT1 (human)): 89.8%; residual activity (ABL1 (human)): 50.6%; residual activity (ZAP70 (human)): 97%; residual activity (CDK1 CCNA2 (human)): 91.6%; residual activity (BTK (human)): 28.4%; residual activity (RET (human)): 86.7%; residual activity (PNCK (human)): 93.2%; residual activity (GSG2 (human)): 95.9%; residual activity (CSNK2A2 (human)): 96.6%; residual activity (EPHA5 (human)): 91%; residual activity (PDGFRB (human)): 26.7%; residual activity (FRK (human)): 27.5%; residual activity (AURKB (human)): 4.31%; residual activity (EGFR (human)): 89.7%; residual activity (FGR (human)): 21.2%; residual activity (FER (human)): 58.2%; residual activity (STK24 (human)): 101%; residual activity (PRKCB1 (human)): 91.9%; residual activity (PRKCD (human)): 90.4% |
| Oc1ccc(-c2nc(-c3ccc(F)cc3)c(-c3ccncc3)[nH]2)cc1 | 104% | 102% | 105% | 110% | 99% | 89.8% | 97.4% | 57.3% | 101% | 99.8% | 78.4% | 93.5% | 99.6% | 85.5% | 101% | 98.3% | 101% | 106% | 108% | 95% | residual activity [1]: 31.1%; residual activity (MAPKAPK2 (human)): 99.2%; residual activity (FLT1 (human)): 90.6%; residual activity (BRAF (human)): 60.5%; residual activity (ZAP70 (human)): 100%; residual activity (CDK1 CCNA2 (human)): 90.9%; residual activity (BTK (human)): 101%; residual activity (RET (human)): 89.3%; residual activity (PNCK (human)): 99.7%; residual activity (GSG2 (human)): 86.9%; residual activity (CSNK2A2 (human)): 95.9%; residual activity (EPHA5 (human)): 90.7%; residual activity (PDGFRB (human)): 104%; residual activity (FRK (human)): 90.4%; residual activity (AURKB (human)): 104%; residual activity (FGR (human)): 93%; residual activity (FER (human)): 94.5%; residual activity (STK24 (human)): 95.2%; residual activity (PRKCB1 (human)): 63.7%; residual activity (PRKCD (human)): 99.3% |
| CS(=O)c1ccc(-c2nc(-c3ccc(F)cc3)c(-c3ccncc3)[nH]2)cc1 (stereo not drawn) | 76.7% | 99.8% | 101% | 106% | 96.1% | 94.4% | 96.5% | 57.2% | 104% | 105% | 107% | 99.9% | 95.6% | 83.2% | 99.9% | 103% | 102% | 97.4% | 94.3% | 95.3% | residual activity [1]: 42.7%; residual activity (FLT1 (human)): 95.2%; residual activity (BRAF (human)): 78.8%; residual activity (ABL1 (human)): 97%; residual activity (ZAP70 (human)): 94.4%; residual activity (CDK1 CCNA2 (human)): 91.2%; residual activity (BTK (human)): 97.2%; residual activity (RET (human)): 85.1%; residual activity (PNCK (human)): 102%; residual activity (GSG2 (human)): 88.3%; residual activity (EPHA5 (human)): 89.5%; residual activity (PDGFRB (human)): 103%; residual activity (FRK (human)): 87.2%; residual activity (AURKB (human)): 87.7%; residual activity (FGR (human)): 92.7%; residual activity (FER (human)): 95%; residual activity (STK24 (human)): 99%; residual activity (PRKCB1 (human)): 74%; residual activity (PRKCD (human)): 107% |
